# Laboratory results published in patent US20260263563A1, “Method of Treatment of a Thoracolumbar Deformity in a Human Subject with Achondroplasia” (Ascendis Pharma Growth Disorders A/S, priority 2023, published 2026).
# Where two headings read alike, the source gives them in different places.
# Legend:
# [1] = test system: healthy adult male subjects
# [2] = test system: prepubertal children with achondroplasia; settings: for Overall Scoliosis Incidence, Baseline: baseline (prior to treatment)
# Protocol: X-rays (radiographs) were taken from subjects in the placebo group and cohort 4 in the Phase 2 Study trials, including those at the thoracolumbar spine (lateral and anterior-posterior/posterior-anterior (AP/PA)) and lower extremity (AP). The lateral X-rays (taken from the placebo group and the 100 μg/kg (cohort 4 group) at baseline and after 52 weeks of treatment were analyzed.
# Methodology: From the spine radiographs, aspects related to spinal stenosis, spinal curvature, and spinal height were measured. To assess the size of the spinal canal in the lumbar region (L1-L5), which is smaller in ACH, interpedicular distance (IPD) and pedicle width (PW) are measured on the anterior-posterior/posterior-anterior (AP/PA) and lateral radiographs, respectively. At each level of the lumbar spine, IPD is measured as the distance between the most medial aspects of the pedicles of the spinal canal, and PW is measured from the posterior vertebral body line to the posterior laminar line. Scoliosis is assessed by measuring Cobb angles in the proximal thoracic, main thoracic, and lumbar regions of the AP/PA spine radiograph. On the lateral spine radiograph, Cobb angles for kyphosis are assessed in the thoracic (TK) and thoracolumbar (TLK) region and for lordosis in the lumbar region (LL). Spinal heights (both thoracic and total) are measured on the AP/PA spine radiograph. • Scoliosis: Cobb angles of the proximal thoracic (T1-T3), main thoracic (T2-L1), and lumbar (L1-L5) regions • Kyphosis: Cobb angles of the thoracic (T5-T12, TK) and thoracolumbar (T10-L2, TLK) regions • Lordosis: Cobb angles of the lumbar (L1-L5, LL) region • Thoracic spine height (T1 to T12) and Total spine height (T1 to S1)
# As many of these parameters vary naturally during growth, published normative data from both healthy and ACH populations are being utilized to calculate Z-scores where possible. For spine kyphosis, data from Lee et al., 2012 (Journal of spinal disorders & techniques. 2012; 25(8):E259-63) and Abousamra et al. 2019 (Spine Deform. 2019 January; 7(1):163-170) were used to calculate Z-scores based on data from healthy and ACH children.
# A decrease of the (Posterior Height/Middle Width) ratio is indicative of a normalization of vertebral morphology.
# [3] = 50 and 100 μg/kg vs placebo, 52 weeks
# [4] = cohorts 3 and 4 vs placebo, 52 weeks, initial data
# [5] = single patient, after 52 weeks treatment
# [6] = single patient, after 52 weeks treatment (100 μg/kg/week)
# [7] = single patient, week 52, 100 μg/kg/week
substance,measurement,setting,value
Navepegritide [Compound (1)],immunogenic response,[1]; single s.c. doses,no evidence of immunogenic response
same,local tolerability findings,[1]; single s.c. doses,predominantly mild to moderate redness
same,most commonly reported (≥10% of subjects) treatment-emergent adverse events,[1]; single s.c. doses,"headache, contact dermatitis, postural dizziness, (orthostatic) tachycardia, dizziness, and orthostatic hypotension"
same,serious adverse effects or deaths,[1]; single s.c. doses,no serious adverse effects (AEs) or deaths reported
same,severity of most TEAEs,[1]; single s.c. doses,mild or moderate
same,tolerability,"[1]; single s.c. doses up to 150 μg CNP/kg, all investigated doses",generally well tolerated
same,"TLK Z-score (Healthy), Week 52 Change from Baseline (Mean ± SD)","[2]; 100 μg/kg/week, n 5, p < 0.05 vs placebo (ANCOVA), placebo −0.19 (0.318)",−1.004 (0.614)
same,"TLK Z-score (ACH), Week 52 Change from Baseline (Mean ± SD)","[2]; 100 μg/kg/week, n 6, p < 0.05 vs placebo (ANCOVA), placebo −0.052 (0.242)",−0.416 (0.412)
same,"TLK, Week 52 Change from Baseline (Mean ± SD)","[2]; 100 μg/kg/week, n 6, placebo −[…] (2.61)",−7.17 (4.94) degrees
same,interpedicular distance (IPD),[2]; [3],no clear effect
same,pedicular width (PW),[2]; [3],trend for patients on treatment to have an increase
same,"Overall Scoliosis Incidence, After 52 weeks of Treatment","[2]; Cohort 3, 50 μg/kg",0 out of 9
same,"Overall Scoliosis Incidence, Baseline","[2]; Cohort 3, 50 μg/kg",3 out of 9
same,"Overall Scoliosis Incidence, After 52 weeks of Treatment","[2]; Cohort 4, 100 μg/kg",1 out of 9
same,"Overall Scoliosis Incidence, Baseline","[2]; Cohort 4, 100 μg/kg",3 out of 9
same,thoracolumbar kyphosis,[2]; cohort 4 after 52 weeks of treatment,statistically significant reduction
same,kyphosis Cobb Angle,[2]; [4],trend for a dose dependent reduction
same,scoliosis main thoracic Cobb Angle,[2]; [4],trend for a dose dependent reduction
same,lumbar lordosis,[2]; phase 2 and open label extension trial,slight trend for an increase
same,"Patient Angle, thoracic kyphosis (TK)","[2]; single patient one, baseline",11.6 degrees
same,"L1 vertebra LW, change from baseline",[2]; [5],Δ4.1 mm
same,"L1 vertebra MH, change from baseline",[2]; [5],Δ1.4 mm
same,"L1 vertebra MW, change from baseline",[2]; [5],Δ5.9 mm
same,"L1 vertebra PH, change from baseline",[2]; [5],Δ1.5 mm
same,L1 vertebra LW (Lower Width),[2]; [6],22.9 mm
same,L1 vertebra MH (Middle Height),[2]; [6],15.0 mm
same,L1 vertebra MW (Middle Width),[2]; [6],14.6 mm
same,L1 vertebra PH (Posterior height),[2]; [6],15.8 mm
same,L1 vertebra PH/MW,[2]; [6],108 mm
same,"L1 vertebra PH/MW, change from baseline","[2]; single patient, after 52 weeks treatment, [~80@T12/12]",Δ−56 [~80@T12/12] mm
same,L1 vertebra LW (Lower Width),"[2]; single patient, baseline",18.8 mm
same,L1 vertebra MH (Middle Height),"[2]; single patient, baseline",13.6 mm
same,L1 vertebra MW (Middle Width),"[2]; single patient, baseline",8.7 mm
same,L1 vertebra PH (Posterior height),"[2]; single patient, baseline",14.3 mm
same,L1 vertebra PH/MW,"[2]; single patient, baseline",164 mm
same,"Patient Angle, lumbar lordosis (LL)","[2]; single patient, baseline",58.3 degrees
same,"Patient Angle, thoraco-lumbar kyphosis (TLK)","[2]; single patient, baseline",24.0 degrees
same,apical wedging and shape of L1 vertebra on radiographs,"[2]; single patient, baseline vs 52 weeks of treatment",noted decrease in apical wedging and normalization of the L1 vertebra
same,Patient Z-score TK3,"[2]; single patient, baseline, reference population 3 (Abousamra 2019) 20.0 ± 12.5",−0.7
same,Patient Z-score TLK3,"[2]; single patient, baseline, reference population 3, 18.5 ± 13.2",0.4
same,Patient Z-score LL3,"[2]; single patient, baseline, reference population 3, 66.7 ± 17.5",−0.5
same,Patient Z-score TLK2,"[2]; single patient, baseline, reference population 5.0 ± 7.2",2.6
same,Patient Z-score TK2,"[2]; single patient, baseline, reference population 31.6 ± 9.2",−2.2
same,Patient Z-score LL2,"[2]; single patient, baseline, reference population 44.4 ± 9.4",1.5
same,"Patient Angle, lumbar lordosis (LL)",[2]; [7],60.2 degrees
same,"Patient Angle, thoracic kyphosis (TK)",[2]; [7],12.6 degrees
same,"Patient Angle, thoraco-lumbar kyphosis (TLK)",[2]; [7],9.1 degrees
same,Patient Z-score TK2,"[2]; single patient, week 52, 100 μg/kg/week, reference 31.6 ± 9.2",−2.1
same,Patient Z-score TLK2,"[2]; single patient, week 52, reference 5 ± 7.2",0.6
same,Patient Z-score LL2,"[2]; single patient, week 52, reference 44.4 ± 9.4",1.7
same,Patient Z-score TLK3,"[2]; single patient, week 52, reference population 3, 18.5 ± 12.0",−0.6
same,Patient Z-score TK3,"[2]; single patient, week 52, reference population 3, 19.7 ± 13.2",−0.5
same,Patient Z-score LL3,"[2]; single patient, week 52, reference population 3, 66.0 ± 15.5",−0.4
